Laboratory results published in patent EP3613735A1, “NOVEL SIRT 1 ACTIVATOR AND MEDICINAL USE THEREOF” (Pusan National University Industry - University Cooperation …, priority 2017, dated 2018).

What was measured:
p-IRE = experiment: Liver endoplasmic reticulum stress marker, Western blot; assay type: in vivo, mouse; settings: db/db mice, oral treatment
Experimental: The cause of non-alcoholic liver disease (NAFLD) is unclear, but recent studies report that endoplasmic reticulum (ER) stress can be involved in fatty liver development and progression to non-alcoholic fatty hepatitis. Thus, in order to analyze the effect of Compound 32u on endoplasmic reticulum stress-related marker (p-IRE) was identified by Western blot. Briefly, about 50 mg of liver was quantified, homogenated and lysed to extract proteins. After quantifying the extracted protein and loading the same amount thereof in the polyacrylamide gel, the protein was separated according to molecular weight through SDS-PAGE (sodium dodecyl sulfate-polyacrylamide gel electrophoresis). Proteins separated according to molecular weight were transferred to a membrane by applying an electric field, and the desired protein was detected using a specific antibody. After reacting the primary antibody that specifically binds to the protein to be detected for at least 12 hours, the secondary antibody that specifically binds to the primary antibody is reacted for 1 hour, and the expression of the protein can be analyzed by treating the developer liquid containing the substrate HRP (horse radish peroxidase) present in the secondary antibody. […] Briefly, about 50 mg of liver was quantified, homogenated and lysed to extract proteins. […]

db/db mice = experiment: Serum insulin by ELISA in obese animal model; assay type: in vivo; settings: oral 5 mg/kg daily, compared with db/db mouse group
Experimental: The metabolic disease control ability of Compound 32u was analyzed using db/db mice lacking an appetite-regulating hormone leptin receptor as an obese animal model. Compound 32u was orally administered to db/db mice (9 weeks old) at a concentration of 5 mg/kg daily for 4 weeks. Next, the blood insulin concentration was measured using an enzyme-linked immunosorbent assay (ELISA). Mouse insulin ELISA (TMB) kit ([…], Japan) was used, and serum separated from animal blood was added to a 96 well plate coated with insulin primary antibody and after reacting, the secondary antibody and the substrate were added, reacted and the changed color was measured by an absorbance meter. The metabolic disease control ability of Compound 70c was analyzed using db/db mice lacking an appetite-regulating hormone leptin receptor as an obese animal model. Compound 70c was orally administered to db/db mice (9 weeks old) at a concentration of 5 mg/kg daily for 4 weeks. Next, the blood insulin concentration was measured using an enzyme-linked immunosorbent assay (ELISA). Mouse insulin ELISA (TMB) kit ([…], Japan) was used, and serum separated from animal blood was added to a 96 well plate coated with insulin primary antibody and after reacting, the secondary antibody and the substrate were added, reacted and the changed color was measured by an absorbance meter.

SIRT 1 = molecular target: T1, SIRT 1 (Homo sapiens, UniProt Q96EB6); experiment: SIRT 1 fluorometric drug discovery kit (AK-555, Biomol), deacetylation of Fluor de Lys-SIRT 1 substrate; assay type: biochemical; settings: 100 µM candidate vs 100 µM resveratrol positive control; 25 µM Fluor de Lys-Sirt1, 25 µM NAD+
T1 sequence (Q96EB6 1-747): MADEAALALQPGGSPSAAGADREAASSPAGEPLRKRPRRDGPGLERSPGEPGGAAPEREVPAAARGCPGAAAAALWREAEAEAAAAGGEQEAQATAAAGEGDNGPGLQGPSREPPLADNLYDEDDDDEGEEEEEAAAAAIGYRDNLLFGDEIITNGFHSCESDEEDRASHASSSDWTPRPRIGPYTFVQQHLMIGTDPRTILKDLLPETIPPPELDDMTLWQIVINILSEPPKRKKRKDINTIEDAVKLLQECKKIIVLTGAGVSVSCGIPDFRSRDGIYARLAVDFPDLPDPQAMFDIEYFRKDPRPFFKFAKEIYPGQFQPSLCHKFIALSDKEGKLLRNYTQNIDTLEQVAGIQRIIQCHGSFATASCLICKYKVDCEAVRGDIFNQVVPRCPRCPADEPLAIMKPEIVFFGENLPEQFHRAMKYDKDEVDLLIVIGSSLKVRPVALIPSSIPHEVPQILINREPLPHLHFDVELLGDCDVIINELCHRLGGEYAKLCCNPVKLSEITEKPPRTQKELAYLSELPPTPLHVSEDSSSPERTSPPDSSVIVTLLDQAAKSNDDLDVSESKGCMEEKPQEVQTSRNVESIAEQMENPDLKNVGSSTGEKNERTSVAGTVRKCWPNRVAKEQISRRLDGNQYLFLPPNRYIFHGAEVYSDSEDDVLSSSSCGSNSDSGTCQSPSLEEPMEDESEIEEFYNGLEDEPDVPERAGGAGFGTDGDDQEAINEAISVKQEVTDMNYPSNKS
Experimental: SIRT 1 activity of candidate SIRT 1 activator compounds synthesized based on the benzo[d]furan backbone were measured using a SIRT 1 fluorometric drug discovery kit (AK-555, Biomol). Briefly, as the substrate for analysis, 0.2 U/L of Fluor de Lys-SIRT 1 substrate developer mixture is used, which is amino acid 379382 of human […] AC), and SIRT 1 incubated with cosubstrate NAD^+. The degree of initial deacetylation of SIRT 1 for 100 μM candidate was measured using 100 μM resveratrol as a positive control in 25 μM Fluor de Lys-Sirt1 and 25 μM NAD^+ environments. The reaction was stopped using Fluor de LysTM Developer II/2 mM nicotinamide, followed by measuring fluorescence (Excitation: 360 nm, Emission: 460 nm). The SIRT 1 activity for candidate SIRT 1 activator compounds synthesized based on the benzo[d]oxazole backbone were measured using SIRT 1 fluorometric drug discovery kit (AK-555, Biomol). Briefly, 0.2 U/L of Fluor de Lys-SIRT 1 substrate developer mixture liquid was used as the analytical substrate, meaning amino acid 379382 of human […] […] The initial degree of deacetylation of SIRT 1 for 100 μM candidate was measured using 100 μM resveratrol as a positive control in 25 μM Fluor de Lys-Sirt1 and 25 μM NAD+. The reaction was stopped using Fluor de LysTM Developer II/2 mM nicotinamide, followed by fluorescence (Excitation: 360 nm, Emission: 460 nm).

Cl.O=C(Nc1ccccc1-c1cc2ccc(CN3CCNCC3)cc2o1)c1ccc2ccccc2c1 [Compound 32u, N-(2-(6-(Piperazin-1-ylmethyl)benzofuran-2-yl)phenyl)-2-naphthamide hydrochloride]
protein expression of endoplasmic reticulum stress-related markers (p-IRE) (p-IRE): significantly reduced | serum insulin concentration (db/db mice): reduced | SIRT 1 activity (SIRT 1): higher SIRT 1 activity effect than resveratrol

O=C(Nc1ccccc1-c1nc2cc(CN3CCN(C4CCCCC4)CC3)ccc2o1)c1ccc2ccccc2c1 [Compound 70c, N-(2-(5-((4-Cyclohexylpiperazin-1-yl)methyl)benzo[d]oxazol-2-yl)phenyl)-2-naphthamide]
protein expression of endoplasmic reticulum stress-related markers (p-IRE) (p-IRE): significantly reduced | serum insulin concentration (db/db mice): reduced | SIRT 1 activity (SIRT 1): higher SIRT 1 activity effect than resveratrol
